Test results taken from ChEMBL document CHEMBL3352802, “Injury-induced biosynthesis of methyl-branched polyene pigments in a white-rotting basidiomycete” (J Nat Prod, 2014).

Key:
[1] = Cytotoxicity against human HeLa cells assessed as cell death; assay type: cell-based
K562 = test: Antiproliferative activity against human K562 cells after 72 hrs; assay type: functional; conditions: K562, 72 h
HUVEC = test: Antiproliferative activity against HUVEC cells after 72 hrs; assay type: functional; conditions: Homo sapiens

GI50 (K562) | SMILES | CC50 [1] | GI50 (HUVEC)
15.4 µM | CC(=O)/C(C)=C/C=C/C=C\C=C\C=C\C=C\C=C\C=C/CC(=O)O | 44.1 µM | 71.6 µM
1.1 µM | CC(=O)/C(C)=C/C=C/C=C\C=C\C=C\C=C\C=C\C=C/C=C/CC(=O)O | 45.1 µM | 17.4 µM
3.3 µM | CC(=O)[C@]1(O)Cc2c(O)c3c(c(O)c2[C@@H](O[C@H]2C[C@H](N)[C@H](O)[C@H](C)O2)C1)C(=O)c1ccccc1C3=O [IDARUBICIN] | – | –
1.9 µM | CCc1c2c(nc3ccc(OC(=O)N4CCC(N5CCCCC5)CC4)cc13)-c1cc3c(c(=O)n1C2)COC(=O)[C@]3(O)CC [IRINOTECAN] | – | –
5.2 µM | CC/C(=C(\c1ccccc1)c1ccc(OCCN(C)C)cc1)c1ccccc1 [TAMOXIFEN] | – | –
